Reference: ChEMBL document CHEMBL1128658, “Isolation, structure determination and squalene synthase activity of L-731,120 and L-731,128, alkyl citrate analogs of zaragozic acids A and B” (Bioorg Med Chem Lett, 1995)

Assays:
Mus musculus [1] = assay: In vivo inhibitory activity against mouse hepatic cholesterol synthesis administered orally at 48 mpk; format: functional; details: po
Squalene synthase = target: T1, Squalene synthase (Rattus norvegicus, UniProt Q02769); assay: In vitro inhibitory activity against rat squalene synthase
T1 sequence (Q02769 whole entry): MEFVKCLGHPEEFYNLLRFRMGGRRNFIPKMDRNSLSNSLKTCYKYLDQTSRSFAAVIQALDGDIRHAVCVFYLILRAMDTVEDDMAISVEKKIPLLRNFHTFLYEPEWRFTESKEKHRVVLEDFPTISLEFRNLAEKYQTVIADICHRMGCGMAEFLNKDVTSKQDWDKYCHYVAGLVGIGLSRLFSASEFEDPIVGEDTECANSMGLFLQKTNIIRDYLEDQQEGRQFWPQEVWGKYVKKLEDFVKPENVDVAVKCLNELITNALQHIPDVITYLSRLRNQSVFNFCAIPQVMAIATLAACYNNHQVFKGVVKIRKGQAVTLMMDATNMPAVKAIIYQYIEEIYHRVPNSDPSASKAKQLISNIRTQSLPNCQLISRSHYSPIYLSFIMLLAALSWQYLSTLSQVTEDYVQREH

Mus musculus [2] = assay: In vivo inhibitory activity against mouse hepatic cholesterol synthesis administered orally at 40 mpk; format: functional; details: po
Mus musculus [3] = assay: In vivo inhibitory activity against mouse hepatic cholesterol synthesis administered subcutaneously; format: functional; details: sc
Mus musculus [4] = organism: Mus musculus; assay: animal or person; format: functional; details: po
Description: In vivo inhibitory activity against mouse hepatic cholesterol synthesis administered orally at 24 mpk

IC50 (Squalene synthase) [µM]	SMILES	inhibition in vivo at 48 mg/kg (Mus musculus [1]) [%]	inhibition in vivo at 40 mg/kg (Mus musculus [2]) [%]	ED50 (Mus musculus [3]) [mg/kg]	inhibition in vivo at 24 mg/kg (Mus musculus [4]) [%]
9	CCCCCCCCCCCCCCCCC(C(=O)O)C(O)(CC(=O)O)C(=O)O (stereo not drawn)	0	–	–	–
–	C=C(CCC12OC(C(=O)O)C(O)(C(=O)O)C(C(=O)O)(O1)[C@H](OC(=O)/C=C/[C@@H](C)C[C@@H](C)CC)[C@H]2O)[C@@H](OC(C)=O)[C@H](C)Cc1ccccc1 (stereo partly drawn) [ZARAGOZIC ACID A]	–	20	0.2	–
–	C=C(CCC12OC(C(=O)O)C(O)(C(=O)O)C(C(=O)O)(O1)[C@H](O)[C@H]2O)[C@@H](OC(C)=O)[C@H](C)Cc1ccccc1 (stereo partly drawn)	–	–	–	34
0.26	C/C(=C\C(C)Cc1ccccc1)CCCCCC(C(=O)O)C(O)(CC(=O)O)C(=O)O (stereo not drawn)	0	–	15	–
